Here are results for four molecules from paper PMC7355663, “Microscale Thermophoresis as a Screening Tool to Predict Melanin Binding of Drugs” (Pharmaceutics, 2020).

The conditions of data set [1]: monkeys and humans; ref [10]; cited from earlier work.
The nature of data set [2]: Label-free microscale thermophoresis (MST) melanin binding assay. How it is done:
Synthetic melanin was purchased from Sigma Aldrich (#M8631-100 mg). Melanin nanoparticles were prepared as described earlier by Fan et al., and low-binding pipette tips (Maxymum RecoveryTM pipet tips, Corning Incorporated, Salt Lake City, UT, USA) and tubes (No stick microtubes, Alpha Laboratories, Hampshire, UK) were used with both melanin and melanin nanoparticles. Briefly, melanin was dissolved into 1 N NaOH with a concentration of 2 mg/mL and stirred by vortexing. The solution was neutralized by adding an equal volume of 1 N HCl. […] After the final centrifugation, the resulting nanoparticles were suspended into a small volume of sterile water and freeze-dried for 48–72 h (ModulyoD-230, Thermo Savant, Holbrook, NY, USA), and stored at −20 °C until the binding assays.
Melanin binding of each of the 13 model compounds was determined (for the concentrations in the assay, see Table 1). The dilution series of drugs were prepared onto a PCR plate (4titude PCR Plate, Skirted, #4ti-0740, Brooks Life Sciences, Chelmsford, MA, USA) in phosphate buffered saline (PBS, pH 7.4). […] The compound dilutions (10 µL) were transferred into 0.2 mL PCR tube strips (#TBS0201, Bio-Rad Laboratories, Inc., Hercules, CA, USA), and an equal volume of 1 mg/mL melanin nanoparticle dilution was added, resulting in a final melanin concentration of 0.5 mg/mL. At least three biological replicates (individually incubated dilution series) were prepared for each compound (n = 3–5). A reference sample containing only melanin nanoparticles and PBS (pH 7.4) was included in each assay to determine the unbound state in the thermophoresis experiment. Melanin nanoparticles were incubated with the compounds at room temperature for at least 2 h.
After >2 h incubation, the melanin–ligand complexes were mixed gently with a pipette to ensure melanin solution homogeneity and then transferred into capillaries (Monolith NT.115 Premium capillaries, #MOK025, NanoTemper Technologies GmbH, München, Germany). The samples were analyzed with a Monolith NT.115 pico device using MO.Control Software (both from NanoTemper Technologies GmbH, München, Germany) using nano-blue excitation, LED light adjusted to 60% excitation power, and infrared laser (MST power) set to high. […] The equation is based on the Langmuir binding isotherm. […] Equation (1) is a follows:(1) f(c)=Unbound+(Bound−Unbound)×c+c(target)+Kd−(c+c(target)+Kd)^2−4c×c(target)/2c(target) where f(c) is the fraction bound at a given ligand concentration c. Unbound is either the normalized fluorescence signal (Fnorm; MST mode) or raw fluorescence counts (initial fluorescence mode) of the target alone. Bound is either the normalized fluorescence signal or raw fluorescence counts (initial fluorescence mode) of the melanin–ligand complex. Kd is the dissociation constant or binding affinity, and c (target) is the final concentration of the target in the assay.
The normalized fluorescence is the ratio of relative fluorescence of the selected region after heating (hot region) and relative initial fluorescence before the heating (cold region, i.e., relative fluorescence values before the infrared laser was switched on). The MST traces displaying the changes in the relative fluorescence over time (heating) with the selected hot and cold regions are presented in the Supplementary Materials. In the case of ligand-induced changes in the initial raw fluorescence counts, the raw fluorescence counts prior to the heating were used (initial fluorescence mode). If the ligand-induced fluorescence changes were not observed, the normalized fluorescence signals (MST mode) were used to determine the Kd (for additional information, see the Supplementary Materials). […] Affinity Analysis Software.
Kd determination strategies. The Kd values were tested in both initial fluorescence and the above
described MST modes within the MO Affinity Analysis Software (Fig. S1, Table S1) and the Kd values

Data set [3] has as its system melanin. Description: Prediction of unbound ligand fraction in vivo (human RPE-choroid). Conditions: human, human RPE-choroid (predicted), 34.8 mg/mL melanin. Here is the method: (§1) Unbound ligand fractions in vivo were calculated considering melanin binding as the only driver of nonspecific tissue binding.
(§2) Linear regression was used to describe the relationship between the Kd values obtained with the MST and the predicted unbound ligand fractions in human RPE-choroid obtained with calculations described above.
(§3) The Kd values obtained with MST consider only one class of binding site, whereas the Sips isotherm (the traditional binding assay) depicts different binding energies and binding sites. […] This approach is relevant to evaluate the melanin binding.

Assay in data set [4]: as above
Conditions: class by predicted fraction unbound in vivo, human RPE-choroid. Here is the method:
as §1, §2, §3

Data set [5] concerns melanin. Put plainly: in vitro. To be noted: pig, pH 7.4. How it is done:
(§4) The traditional melanin binding assay was conducted with melanin from the porcine RPE-choroid. We used previously published methods for melanin isolation and drug binding. Fresh melanin suspension and test compound solutions were prepared before each experiment. The melanin suspension (in PBS, pH 7.4) was sonicated in a bath sonicator for 30 min (Elmasonic S 40 H, Elma Schmidbauer GmbH, Singen, Germany) before the experiment. The incubation with test compounds took place at 37 °C on a shaker (220 rpm), and the melanin concentration in the assay was 1 mg/mL (0.15 mg/well). In the control samples, PBS buffer (pH 7.4) was used instead of the melanin suspension. Three individual replicates were made for each experiment. After 20 h incubation, the samples were centrifuged at 20,000× g for 20 min, and supernatant containing the unbound ligand was collected for analysis.
(§5) Samples having an estimated concentration of 0.5 µM or higher were analyzed with ultra-high pressure liquid chromatography (UPLC) (Acquity UPLC, Waters, Milford, MA, USA) with UV detection (Photodiode Array Detector, Waters, MA, USA). The separation was carried out on a Luna Omega Polar C18 (1.6 μm, 2.1 × 50 mm^2) column (Phenomenex) at 30 °C. Injection volume was 4 µL. Gradient mode was used for all the compounds with an acetonitrile/15 mM phosphate buffer (pH 2) mobile phase. Gradient duration was 3−5 min depending on the sample (levofloxacin, terazosin, and papaverine).
(§6) All internal standards, namely levofloxacin D8, terazosin D8, and papaverine D3, were purchased from Toronto Research Chemicals (Toronto, ON, Canada). […] Injection volumes were 0.2 μL for terazosin, 0.3 µL for levofloxacin, and 0.15 µl for papaverine with a flow through needle injection system. The mobile phase consisted of 0.1% formic acid (Merck, Darmstadt, Germany) in ultrapure water (A) and 100% LC–MS grade acetonitrile (Honeywell, Seelze, Germany) (B). […] The gradient for levofloxacin was the same as for papaverine, but the total run time was 6 min. The flow rate was 0.3 mL/min for all the compounds.
(§7) Mass spectrometric measurements were carried out using a Waters Xevo TQ-S triple quadruple mass spectrometer coupled with an electrospray ionization (ESI) on a positive mode for all three compounds. Optimized MS-parameters were as follows: capillary 1.5 kV (terazosin and papaverine), 3.5 kV (levofloxacin), cone voltage 80 V (terazosin) and 8 V (terazosin D8), 22 V (papaverine and papaverine D3), 28 V (levofloxacin and levofloxacin D8), source temperature 150 °C, and desolvation temperature 500 °C (terazosin) or 450 °C (papaverine and levofloxacin). Nitrogen (AGA, Helsinki, Finland) was used as the desolvation gas (1000 L·h^−1 terazosin, 800 L·h^−1 papaverine and levofloxacin) and the cone gas (150 L·h^−1), argon (AGA, Helsinki, Finland) as the collision gas. Multiple reaction monitoring (MRM) mode was employed for quantification. […] The resulting data were analyzed with Waters MassLynx V4.1 software. To consider the effect of melanin on the analyses, separate samples containing only melanin in PBS (with no test compound) were also studied.
(§8) The binding parameters were determined with Sips isotherm (Equation (2)) as described by Manzanares et al.. B = (Bmax × [L]^n)/(Kd^n + [L]^n)(2) where B is the amount of bound drug (nmol·mg^−^1); Bmax is the maximum binding capacity (nmol·mg^−^1); [L] is the free drug concentration (µM); n is the heterogeneity index (assuming heterogeneity of the surface of the melanin particles); and Kd represents the dissociation constant (µM).

The nature of data set [6]: Traditional melanin binding assay (equilibrium binding, Sips isotherm). To be noted: for Target Capacity ± SE, traditional method (Sips isotherm): Bmax multiplied with 0.5 mg/mL melanin concentration of the MST assay. Here is the method:
as §4, §5, §6, §7, §8

On the set-up of data set [7]: method as in PMID 26741026, PMID 29859954. Conditions: from previous studies, ref [11],[16], cited from earlier work.
For data set [8] the following is noted: average of the two high binders; 34 compounds in cassette; melanin 3.6 mg/mL; data of Pelkonen et al. [6]. Here is the method: as §1
Data set [9] in a line: Label-free microscale thermophoresis (MST) melanin binding assay. To be noted: Table S2; 80% excitation power; read-out: Kd, initial fluorescence mode.
[10] abbreviates: 0.5 mg/mL (12.5 µM) melanin nanoparticles, PBS pH 7.4, room temperature, 68% confidence, initial fluorescence mode for compounds marked *, otherwise MST mode, read-out: Kd ± Kd Confidence (MST).
Setting [11] is: Table S2, normalized fluorescence, 60% excitation power, read-out: Kd, MST mode (Fnorm).

Structures are written as SMILES. Where two headings read alike, the source gives them in different places.

Regarding `CC(C)NCC(O)COc1ccc(CCOCC2CC2)cc1` (stereo not drawn) [betaxolol], the “concentration in pigmented eye tissues compared to neighboring non-pigmented tissues” value in [1] is 20–150 fold.
As for `CC(C)(C)NC[C@H](O)COc1nsnc1N1CCOCC1` [Timolol], the Kd in data set [2] (setting [10]) was 260 ± 128 µM; in data set [2] (setting [11]) it was 260 µM; in data set [7] (read-out: Kd ± SE, traditional method (Sips isotherm)), 120 ± 30 µM. Moreover, the fraction unbound at 1 µM in the data set on melanin [3] was 0.057. For the same molecule, in data set [4], the “Melanin binding class based on traditional assay” value is listed as “intermediate”. Also, the fraction unbound at 20 h, 1 µM in the data set on melanin [5] came out at 0.71. For the same molecule, in data set [6], the “Target Capacity ± SE, traditional method (Sips isotherm)” value turned out to be 19.5 ± 3 µM. Moreover, the “n ± SE, traditional method (Sips isotherm)” value in data set [7] (heterogeneity index) is 0.95 ± 0.03. For the same molecule, the “Bmax ± SE, traditional method (Sips isotherm)” value in [7] (maximum binding capacity) is 39 ± 6 nmol/mg.
Turning to `Clc1ccc2nsnc2c1NC1=NCCN1` [tizanidine], in data set [8], the “unbound fraction in cassette assay compared to single compound incubation” value was determined as 2.1 fold.
For `C[C@H]1COc2c(N3CCN(C)CC3)c(F)cc3c(=O)c(C(=O)O)cn1c23` [Levofloxacin], the Kd in data set [2] (setting [10]) turned out to be 46.5 ± 40.1 µM; in data set [2] (setting [11]) it was 47 µM; in data set [6] (read-out: Kd ± SE, traditional method (Sips isotherm), 1 mg/mL melanin, PBS pH 7.4, 37 °C, 20 h), 157 ± 56 µM; in [9], 54 µM. In addition, in the data set on melanin [3], the fraction unbound at 1 µM was 0.0033. In addition, in data set [4], the “Melanin binding class based on traditional assay” value is reported as “high”. This molecule showed a fraction unbound at 20 h, 1 µM in the data set with melanin [5] of 0.28. For the same molecule, the “Target Capacity ± SE, traditional method (Sips isotherm)” value in data set [6] was determined as 36 ± 5.5 µM. Further, the “n ± SE, traditional method (Sips isotherm)” value in data set [6] (heterogeneity index, 1 mg/mL melanin, PBS pH 7.4, 37 °C, 20 h) turned out to be 0.73 ± 0.02. The “Bmax ± SE, traditional method (Sips isotherm)” value in data set [6] (maximum binding capacity, 1 mg/mL melanin, PBS pH 7.4, 37 °C, 20 h) was 72 ± 11 nmol/mg.
